Columns and labels:
Acute toxicity (LD50) = experiment: Acute toxicity (LD50); set-up: species or system mice; conditions: mouse, in vivo; death ratio observed for 14 days; Behrens-Korber's method
Excerpt: (3) Acute toxicity (LD50):
On each occasion, the test compound was given to the test animal.

Sarcoma 180 solid tumour = experiment: Effect on Sarcoma 180 solid tumour (ED50, chemotherapeutic index); assay type: in vivo, ddy mice; conditions: Anti-tumour activity; ratio of LD50 to ED50; ED50 = dose giving T/C 0.5 of Sarcoma 180 solid tumour volume, intraperitoneal injection
Excerpt: (1) Effect on Sarcoma 180 solid tumour:
5 x 10^6 cells of Sarcoma 180 solid tumour were innoculated into the abdominal cavities of groups of ddy mice, each group consisting of 5 mice. 7..days after this, on each occasion, the tumour cells were collected from the ascites of the mouse. The cells were washed with a sterilized physiological sodium chloride solution and used to prepare a cell suspension containing 5 x 10^7 cells per ml of a sterilized physiological solution of sodium chloride, of which 0.1 ml was injected under the skin of the right armpit of a ddy male mouse (body weight 20 ±2 g). A test compound was dissolved in a physiological solution of sodium chloride or a similar solution containing Tween 80 (a surfactant commercially available from Atlas Chemical Industries, Inc., U.S.A.). 24 hours after the implantation of the tumours cells, the test compound (0.1 to 0.2 ml) was injected into the test mice intraperitoneally. In order to determine the antitumour activity of the test compound, 7 days after the implantation of the tumour cells, on each occasion, the major axis (a) and minor axis (b) of the tumour were measured to calculate the volume of the tumour ['a' x ^Ib'/2]. The anti-tumour effect was evaluated by the ratio of the tumour volume in the test animals (T) to the corresponding volume of the control (untreated) animals (C).
(2) Determination of ED50.
A dose capable of reducing the volume of a Sarcoma 180 solid tumour to 50% of the corresponding volume of the untreated group on average was defined as the ED50. T/C ratios and the doses were respectively plotted on the ordinate in arithmetic scale and abscissa in logarithmic scale on graph paper, from which the relationship between the doses and the T/C ratios was calculated as a straight line by the least square method. From the straight tropic line thus-obtained, the dose corresponding to a T/C of 0.5 was determined.

[1] = Effect upon the number of peripheral leukocytes (WBC 4000); assay type: in vivo; conditions: mouse, Toxicity against bone marrow, WBC 4000 = dose giving 4000 leukocytes/mm3, Sarcoma 180 bearing mice, read-out: WBC 4000/ ED50
Method: (5) Effect upon the number of peripheral leukocytes:
5 x 10^6 cells of Sarcoma 180 solid tumour were implanted under the skin of each mouse at the right armpit. 24 hours after this, venous blood (0.02 ml) was collected from the eyepit of the mouse and suspended in Cell-Kit Seven solution (10 ml; commercially available from Toa Iryo Denshi K.K., Japan).
To the suspension, a drop of saponin solution was added to dissolve the red cells and the number of leukocytes were counted using a microcell counter. The number of leukocytes and the corresponding dose were respectively plotted on the ordinate in arithmetic scale and on the abscissa in logarithmic scale on graph paper to investigate the relationship between dosage and the number of peripherical leukocytes. A dose capable of giving 4000 leukocytes/mm3 was defined as WBC 4000, which corresponded to about 1/2 the number of peripherical leukocytes in normal mice.
The greater the ratio of WBC 4000 to ED50 the smaller the decrease in the number of peripherical leukocytes viz. the lower the toxicity against bone marrow in the area of the effective dose.

CC1=C(NCCSSCCNC2=C(C)C(=O)C3=C(C2=O)C(COC(N)=O)C2(O)C4C(CN32)N4C)C(=O)C2=C(C1=O)N1CC3C(N3C)C1(O)C2COC(N)=O (stereo not drawn) [a, 7-N,7'-N'-dithiodiethylenedimitomycin D]
LD50 at 336 h (Acute toxicity (LD50)): > 60 mg/kg
C.I. (Sarcoma 180 solid tumour): >2.99
selectivity ratio [1]: 2.29

COC12C(COC(N)=O)C3=C(C(=O)C(C)=C(NCCSSCCN)C3=O)N1CC1NC12 (stereo not drawn) [r, 7-N-[2-(2-aminoethyl)dithioethyl)mitomycin C]
LD50 at 336 h (Acute toxicity (LD50)): 13.5 mg/kg
C.I. (Sarcoma 180 solid tumour): 0.73
selectivity ratio [1]: 1.25

COC12C(COC(N)=O)C3=C(C(=O)C(C)=C(NCCSSCCNC4=C(C)C(=O)C5=C(C4=O)C(COC(N)=O)C4(OC)C6C(CN54)N6C)C3=O)N1CC1C2N1C (stereo not drawn) [t, 7-N, 7'-N'-dithiodiethylenediporfiromycin]
LD50 at 336 h (Acute toxicity (LD50)): 33.8 mg/kg
C.I. (Sarcoma 180 solid tumour): 2.15
selectivity ratio [1]: 1.34

COC12C(COC(N)=O)C3=C(C(=O)C(C)=C(NCCSSCC(O)CO)C3=O)N1CC1NC12 (stereo not drawn) [o, 7-N-[2-(2,3-dihydroxypropyl)dithioethyl]mitomycin C]
LD50 at 336 h (Acute toxicity (LD50)): 22.5 mg/kg

CCSSCCNC1=C(C)C(=O)C2=C(C1=O)C(COC(N)=O)C1(OC)C3NC3CN21 (stereo not drawn) [g, 7-N-(2-ethyldithioethyl)mitomycin C]
LD50 at 336 h (Acute toxicity (LD50)): 5.4 mg/kg
C.I. (Sarcoma 180 solid tumour): 1.64
selectivity ratio [1]: 3.76

COC12C(COC(N)=O)C3=C(C(=O)C(C)=C(NC4CSSC4)C3=O)N1CC1NC12 (stereo not drawn) [j, 7-N-(1,2-dithiolan-4-yl)mitomycin C]
LD50 at 336 h (Acute toxicity (LD50)): 5.25 mg/kg

CC1=C(NCCSSCCN)C(=O)C2=C(C1=O)N1CC3C(N3C)C1(O)C2COC(N)=O (stereo not drawn) [c, 7-N-[2-(2-aminoethyl)dithioethyl]mitomycin D]
LD50 at 336 h (Acute toxicity (LD50)): 74.3 mg/kg
C.I. (Sarcoma 180 solid tumour): 3.11
selectivity ratio [1]: 1.87

COC12C(COC(N)=O)C3=C(C(=O)C(C)=C(NCCSSCCNC4=C(C)C(=O)C5=C(C4=O)C(COC(N)=O)C4(OC)C6NC6CN54)C3=O)N1CC1NC12 (stereo not drawn) [s, 7-N-, 7'-N'-dithiodiethylenedimitomycin C]
LD50 at 336 h (Acute toxicity (LD50)): 18.8 mg/kg
C.I. (Sarcoma 180 solid tumour): 2.98
selectivity ratio [1]: 2.63

CC1=C(NC2CSSC2)C(=O)C2=C(C1=O)N1CC3C(N3C)C1(O)C2COC(N)=O (stereo not drawn) [l, 7-N-(1,2-dithiolan-4-yl)mitomycin D]
LD50 at 336 h (Acute toxicity (LD50)): 35.6 mg/kg

COC12C(COC(N)=O)C3=C(C(=O)C(C)=C(NCCSSCCO)C3=O)N1CC1NC12 (stereo not drawn) [i, 7-N-[2-(2-hydroxyethyl)dithioethyl]mitomycin C]
LD50 at 336 h (Acute toxicity (LD50)): ≤ 11.2 mg/kg
C.I. (Sarcoma 180 solid tumour): ≤2.12
selectivity ratio [1]: 2.13

Source: EP0116208A1, “Mitomycin analogues” (KYOWA HAKKO KOGYO CO., LTD., priority 1982, dated 1984)
